Laboratory results reported in ChEMBL document CHEMBL3227988, “Synthesis and antiviral activities of arabinofuranosyl-5-ethylpyrimidine nucleosides. Selective antiherpes activity of 1-(beta-D-arabinofuranosyl)-5-ethyluracil” (J Med Chem, 1979).
Values after ≈ are worked out from the molar mass of the structure shown. Active and inactive are the calls of the source. The rule behind the calls is not given here.

What follows are compounds tested on Vaccinia virus (assay: Antiviral activity against Vaccinia virus infected in primary rabbit kidney cells assessed as inhibition of virus-induced cytopathogenicity treated immediately after virus adsorption measured 2 to 3 days after virus infection). Conditions: Orthopoxvirus vaccinia.
Type: functional
Work on `O=c1ccn([C@@H]2O[C@H](CO)[C@@H](O)[C@@H]2O)c(=O)[nH]1` [ARAURIDINE] yielded an MIC greater than 200 µg/mL. In the case of `CCc1cn([C@@H]2O[C@H](CO)[C@@H](O)[C@@H]2O)c(=O)[nH]c1=O`, the MIC is reported as greater than 200 µg/mL. For `CCc1cn([C@@H]2O[C@H](CO)[C@@H](O)[C@@H]2O)c(=O)nc1N`, the MIC was greater than 200 µg/mL. `Cc1cn([C@@H]2O[C@H](CO)[C@@H](O)[C@@H]2O)c(=O)[nH]c1=O` gave an MIC of 4 µg/mL (≈ 15.5 µM). `Nc1ccn([C@@H]2O[C@H](CO)[C@@H](O)[C@@H]2O)c(=O)n1` [CYTARABINE] gave an MIC of 0.02 µg/mL (≈ 0.0822 µM).

Each compound was assayed on Vaccinia virus (assay: Antiviral activity against Vaccinia virus infected in primary rabbit kidney cells assessed as inhibition of virus-induced cytopathogenicity at 200 ug/ml treated immediately after virus adsorption measured 2 to 3 days after virus infection). Conditions: Orthopoxvirus vaccinia.
Type: functional, organism-based
In the case of `CCc1cn([C@H]2O[C@H](CO)[C@@H](O)[C@@H]2O)c(=O)nc1N`, the inhibition is reported as “inactive”. With `CCc1cn([C@H]2O[C@H](CO)[C@@H](O)[C@@H]2O)c(=O)[nH]c1=O` the inhibition was “inactive”.
